In patent US20260001893A1, “SMALL MOLECULE MODULATORS OF STAT6” (Gilead Sciences, Inc., priority 2024, published 2026):
pEC50, pKd: −log10 of the molar value.

Columns and labels:
[1] = system: Eotaxin-3 (CCL26) release in human whole blood stimulated with IL-4; experiment: Human whole blood eotaxin-3 assay (IL-4 stimulated eotaxin-3 release); type: cell-based; settings: human whole blood stimulated with recombinant human IL-4, 48 h, geometric mean; for pEC50 / Emax: Homo sapiens, 48 h; for pEC50: inhibition of eotaxin-3 release, given for test compounds with >80% Emax
How it was run: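 Eotaxin-3 (CCL26) release was quantified by MSD immunoassay in supernatants of human heparinised whole blood after 48 h at 37° C with IL-4 ([…] final). Compounds, in 4-fold dilutions at 0.5% DMSO, were added 2 h before stimulation.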

[2] = molecular target: T1, Human STAT6 (truncated, aa122-658, with N-terminal His-tag) (Homo sapiens, UniProt P42226); experiment: Surface plasmon resonance (SPR) assay, binding to human STAT6; settings: Biacore 8K, 25° C, immobilized human STAT6 on CM5 chip, multi-cycle kinetics; geometric mean
T1 construct: Human STAT6 (truncated, aa122-658, with N-terminal His-tag, expressed in insect cells); His-tag (N); made in house; host or cells: insect cells
T1 sequence (P42226 122-658): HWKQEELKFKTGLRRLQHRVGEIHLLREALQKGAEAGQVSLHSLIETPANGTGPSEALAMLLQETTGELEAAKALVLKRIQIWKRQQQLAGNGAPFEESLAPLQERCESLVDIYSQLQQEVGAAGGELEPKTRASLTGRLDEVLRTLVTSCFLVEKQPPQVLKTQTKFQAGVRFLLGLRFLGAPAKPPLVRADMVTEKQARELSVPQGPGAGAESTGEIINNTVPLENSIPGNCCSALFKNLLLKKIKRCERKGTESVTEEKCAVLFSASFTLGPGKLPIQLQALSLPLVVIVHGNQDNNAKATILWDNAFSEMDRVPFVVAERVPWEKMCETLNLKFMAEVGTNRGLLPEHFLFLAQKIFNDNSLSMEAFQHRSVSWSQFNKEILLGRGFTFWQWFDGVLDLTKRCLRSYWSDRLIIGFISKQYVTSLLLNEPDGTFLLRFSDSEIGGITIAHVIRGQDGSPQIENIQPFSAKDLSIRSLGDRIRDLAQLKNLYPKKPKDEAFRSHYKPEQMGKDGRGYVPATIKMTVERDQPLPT
How it was run: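 Truncated STAT6 (aa122-658, N-His, insect-cell expressed) was amine-coupled to a CM5 chip, and compounds were run as multi-cycle kinetics at 25 °C in PBS-P+ with 2% DMSO (60 s contact, up to 300 s dissociation). KD came from steady-state isotherms at a late report point, fitted with free and with fixed theoretical Rmax (1:1).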

[3] = given for test compounds with <80% Emax

Structure (SMILES) | pEC50 [1] | pKd [2] | Emax [1, 3] | Eotaxin-3 Emax (%) [1, 3]
CNc1ccn(-c2ccnc3c2cc(CN2CC[C@H](c4ccc(C(=O)N(C)C)cc4)[C@@H](F)C2)n3C)c(=O)c1 (single isomer, unassigned) [Example 1f3] | 6.54 | 7.49 |  | 
Cc1c(N)ccn(-c2ccnc3c2cc(CN2CCC(c4ccc(C(=O)N(C)C)cc4)CC2)n3C)c1=O [Example 1d21, 4-[1-[[4-(4-Amino-3-methyl-2-oxo-1-pyridyl)-1-methyl-pyrrolo[2,3-b]pyridin-2-yl]methyl]-4-piperidyl]-N,N-dimethyl-benzamide] | 7.02 | 7.68 |  | 
CN(C)C(=O)c1ccc(C2CCN(Cc3cc4c(-n5ccc(N)nc5=O)ccnc4n3C)CC2)cc1 [Example 1ab6, 4-(1-((4-(4-Amino-2-oxopyrimidin-1 (2H)-yl)-1-methyl-1H-pyrrolo[2,3-b]pyridin-2-yl)methyl)piperidin-4-yl)-N,N-dimethylbenzamide] |  | 7.43 | 70 to 80% | 
CN(C)C(=O)c1ccc(C2CCN(Cc3cc4c(-n5ccc6[nH]ncc6c5=O)ccnc4n3C)CC2)cc1 [Example 1j27, N,N-Dimethyl-4-[1-[[1-methyl-4-(4-oxo-1H-pyrazolo[4,3-c]pyridin-5-yl)pyrrolo[2,3-b]pyridin-2-yl]methyl]-4-piperidyl]benzamide] | 7.35 | 8.01 |  | 
CNc1ccn(-c2ccnc3c2cc(CN2CC=C(c4ccc(C(=O)N(C)C)cc4OC)CC2)n3C)c(=O)c1 [Example 1m54, 3-Methoxy-N,N-dimethyl-4-(1-((1-methyl-4-(4-(methylamino)-2-oxopyridin-1 (2H)-yl)-1H-pyrrolo[2,3-b]pyridin-2-yl)methyl)-1,2,3,6-tetrahydropyridin-4-yl)benzamide] | 6.72 | 7.73 |  | 
CNc1ccn(-c2ccnc3c2cc(CN2CCN(c4ccc(C(=O)N(C)C)cc4C)C[C@@H]2C)n3C)c(=O)c1 [Example 1m18, (S)—N,N,3-Trimethyl-4-(3-methyl-4-((1-methyl-4-(4-(methylamino)-2-oxopyridin-1 (2H)-yl)-1H-pyrrolo[2,3-b]pyridin-2-yl)methyl)piperazin-1-yl)benzamide] | 7.27 | 7.72 |  | 
CN(C)C(=O)c1ccc(C2CCN(Cc3cc4c(-n5ccc6[nH]nc(C(F)(F)F)c6c5=O)ccnc4n3C)CC2)cc1 [Example 1ab3, N,N-Dimethyl-4-(1-((1-methyl-4-(4-oxo-3-(trifluoromethyl)-1,4-dihydro-5H-pyrazolo[4,3-c]pyridin-5-yl)-1H-pyrrolo[2,3-b]pyridin-2-yl)methyl)piperidin-4-yl)benzamide] | 6.71 | 7.69 |  | 
CNc1ccn(-c2ccnc3c2cc(CN2CCC(c4ccc(C(=O)N(C)C)cc4)CC2)n3C)c(=O)c1 [Example 1d3, N,N-Dimethyl-4-[1-[[1-methyl-4-[4-(methylamino)-2-oxo-1-pyridyl]pyrrolo[2,3-b]pyridin-2-yl]methyl]-4-piperidyl]benzamide] | 7.08 | 7.74 |  | 
CN(C)C(=O)c1ccc(C2CCN(Cc3cc4c(-n5ccc(N)c(F)c5=O)ccnc4n3C)CC2)cc1 [Example 1d31, 4-[1-[[4-(4-Amino-3-fluoro-2-oxo-1-pyridyl)-1-methyl-pyrrolo[2,3-b]pyridin-2-yl]methyl]-4-piperidyl]-N,N-dimethyl-benzamide] | 7.00 | 7.65 |  | 
CNc1ccn(-c2ccnc3c2cc(CN2CC=C(c4ccc(C(=O)N(C)C)cc4)CC2)n3C)c(=O)c1 [Example 1m35, N,N-Dimethyl-4-(1-((1-methyl-4-(4-(methylamino)-2-oxopyridin-1 (2H)-yl)-1H-pyrrolo[2,3-b]pyridin-2-yl)methyl)-1,2,3,6-tetrahydropyridin-4-yl)benzamide] |  | 7.46 | 40 to 50% | 
CN(C)C(=O)c1ccc(C2CCN(Cc3cc4c(-n5ccc(N)c(COC(C)(C)C)c5=O)ccnc4n3C)CC2)cc1 [Example 1d39, 4-[1-[[4-[4-Amino-3-(tert-butoxymethyl)-2-oxo-1-pyridyl]-1-methyl-pyrrolo[2,3-b]pyridin-2-yl]methyl]-4-piperidyl]-N,N-dimethyl-benzamide] | 6.02 | 7.01 |  | 
CN(C)C(=O)c1ccc(C2CCN(Cc3cc4c(-n5ccc(N)cc5=O)ccnc4n3C)CC2)cc1 [Example 1d1, 4-[1-[[4-(4-Amino-2-oxo-1-pyridyl)-1-methyl-pyrrolo[2,3-b]pyridin-2-yl]methyl]-4-piperidyl]-N,N-dimethyl-benzamide] | 6.92 | 7.90 |  | 
CNc1ccn(-c2ccnc3c2cc(CN2CCN(c4ccc(C(=O)N(C)C)cc4C)C[C@H]2C)n3C)c(=O)c1 [Example 1m19, (R)—N,N,3-Trimethyl-4-(3-methyl-4-((1-methyl-4-(4-(methylamino)-2-oxopyridin-1 (2H)-yl)-1H-pyrrolo[2,3-b]pyridin-2-yl)methyl)piperazin-1-yl)benzamide] | 6.91 | 7.63 |  | 
CNc1ccn(-c2ccnc3c2cc(CN2CCC(c4c(C)cc(C(=O)N(C)C)cc4C)CC2)n3C)c(=O)c1 [Example 1d27, N,N,3,5-Tetramethyl-4-[1-[[1-methyl-4-[4-(methylamino)-2-oxo-1-pyridyl]pyrrolo[2,3-b]pyridin-2-yl]methyl]-4-piperidyl]benzamide] | 7.60 | 7.80 |  | 
CN(C)C(=O)c1ccc(C2CCN(Cc3cc4c(-n5ccc6[nH]nc(C(F)(F)F)c6c5=O)ccnc4n3C)C(=O)C2)cc1 (single isomer, unassigned) [Example 1ab2] |  | 7.42 |  | 50-60%
CNc1ccn(-c2ccnc3c2cc(CN2CCC(c4ccc(C(=O)N(C)C)cc4OC)CC2)n3C)c(=O)c1 [Example 1d36, 3-Methoxy-N,N-dimethyl-4-[1-[[1-methyl-4-[4-(methylamino)-2-oxo-1-pyridyl]pyrrolo[2,3-b]pyridin-2-yl]methyl]-4-piperidyl]benzamide] | 6.59 | 7.29 |  | 
